{"source": "patent EP2292587A1", "about": "“PHARMACEUTICAL COMPOSITION FOR INHIBITING THE TRANSCRIPTION FACTOR INDUCIBLE BY HYPOXIA, MODULATORS OF PATHOLOGICAL PROCESSES OF ANGIOGENESIS, ONCOGENESIS, INFLAMMATION, APOPTOSIS, AND CELLULAR THERAPY” (Fundacion De La Comunidad Valenciana Centro De …, priority 2008, dated 2009)", "key": {"mTOR": {"test_system": "mTOR", "test": "activation kinetics of mTOR signaling pathway, HCT116/p53-/-", "assay_type": "cell-based, human", "settings": "0.5 µM", "experimental": "Due to the crucial role of p53 as a tumor-suppressing agent, it was analyzed in HCT116 cells how FM19G11 affected the activation kinetics of proteins involved in favoring cell cycle progress, specifically the mTOR cell signaling pathway. An increase of cell progress can be due to replicative stress which generates DNA damage (Bartkova, J, Horejsi, Z, Koed, K, Kramer, A, Tort, F, Zieger, K et al., (2005) DNA damage response as a candidate anti-cancer barrier in early human tumorigenesis. Nature 434: 864-70; Bartkova, J, Rezaei, N, Liontos, M, Karakaidos, P, Kletsas, D, Issaeva, N et al., (2006) Oncogene-induced senescence is part of the tumorigenesis barrier imposed by DNA damage checkpoints. Nature 444: 633-7; Di Micco, R, Fumagalli, M, Cicalese, A, Piccinin, S, Gasparini, P, Luise, C et al., (2006) Oncogene-induced senescence is a DNA damage response triggered by DNA hyper-replication. Nature 444: 638-42), it was explored if the DDR triggered by FM19G11 was related to an increase of the cell cycle progress signal modulated by the mTOR signaling pathway. […]"}, "PHD3, HIF1α and HIF2α": {"test_system": "PHD3, HIF1α and HIF2α", "test": "Western blot of HIF target proteins in HeLa9XHRE-LUC cells", "assay_type": "cell-based", "design": "dose or concentration left out as unconfirmed", "settings": "hypoxic conditions, 9 hours", "experimental": "The HeLa9XHRE/LUC cells were lysed with a hypotonic buffer (10 mM Tris-HCl, pH 7.5, 1.5 mM MgCl2, I mM KCIO, 2 mM DTT, 1 mM Pefabloc, 2 mM sodium vanadate, 4 µg/ml pepstatin, 4 µg/ml leupeptin, and 4 µg/ml aprotinin), preserved 20 minutes in ice and subsequently centrifuged for 10 minutes at 1,200 rpm, collecting the supernatant and preserving it at -20°C until its use. The quantification of the proteins was performed with colorimetric Coomassie blue method described by Bradford. A commercial system was used following the manufacturer's instructions (PIERCE Chem Co., Rockford III. USA). Bovine serum albumin (A-7906, SIGMA Chem Co., St. Louis MO, USA) was used to generate a standard curve (0-200 µg of protein). Five microliters of each sample were pipetted in a 96-well plate and […] of the Coomassie solution were added and it was maintained in darkness for 5 minutes at room temperature and the absorbance at OD 595 nm was measured in a spectrophotometer. By means of the Graph-Pad statistical program, the standard line was calculated and the values were extrapolated for each of the samples. The final values were expressed as mcg/mcl of protein. The electrophoresis of proteins of the extract was carried out in polyacrylamide gels under denaturing conditions (SDS-PAGE). A commercial mixture of proteins for low molecular mass polypeptides (Amersham) was used as a molecular size standard. […]"}}, "data": [{"smiles": "Cc1ccc(C(=O)COC(=O)c2cccc(NC(=O)c3ccc([N+](=O)[O-])cc3[N+](=O)[O-])c2)cc1", "note": "[FM19G11, 2-oxo-2-(p-tolyl)ethyl 3-((2,4-dinitro)benzamido)benzoate]", "values": [{"measurement": "mTOR phosphorylation (fold change)", "setting": "mTOR", "result": "≤ 2"}, {"measurement": "expression of HIF 1α and 2α, as well as of PHD3", "setting": "PHD3, HIF1α and HIF2α", "result": "decrease"}]}]}
